Reference: patent US6737383B1, “Herbicidal oxadiazolidines” (priority 1999, dated 2004)

Key:
Alexandergrass = experiment: Test D Alexandergrass; format: in vivo, Brachiaria plantaginea; conditions: Preemergence, 0 to 100 scale
Method in brief: (§1)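 Seeds were sown in greenhouse pots, one species per pot or compartment. Compounds were in a non-phytotoxic solvent mixture with surfactant; preemergence applications went on the sandy loam surface within one day of planting. Injury was rated visually after 14 to 21 days, 0 (none) to 100 (complete control).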

bermuda-grass = experiment: Test D bermudagrass; format: in vivo, Cynodon dactylon; conditions: Preemergence, 0 to 100 scale
Method in brief: as §1

common pursiane = experiment: Test D common purslane; format: in vivo, Portulaca oleracea; conditions: Preemergence, 0 to 100 scale
Method in brief: as §1

common ragweed = experiment: Test D common ragweed; format: in vivo, Ambrosia elatior; conditions: Preemergence, 0 to 100 scale
Method in brief: as §1

common groundsel = experiment: Test D common groundsel; format: in vivo, Senecio vulgaris; conditions: Preemergence, 0 to 100 scale
Method in brief: as §1

dallisgrass = experiment: Test D dallisgrass; format: in vivo, Paspalum dilatatum; conditions: Preemergence, 0 to 100 scale
Method in brief: as §1

goosegrass = experiment: Test D goosegrass; format: in vivo, Eleusine indica; conditions: Preemergence, 0 to 100 scale
Method in brief: as §1

itchgrass = experiment: Test D itchgrass; format: in vivo, Rottboellia exaltata; conditions: Preemergence, 0 to 100 scale
Method in brief: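 Scoring used a 0–100 visual injury scale, with 0 meaning no effect and 100 complete control, assessed 14–21 days after application alongside untreated pots. Preemergence treatments went onto sandy loam surfaces of separately potted seeds within a day of sowing.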

Johnson grass = experiment: Test D Johnson grass; format: in vivo, Sorghum halepense; conditions: Preemergence, 0 to 100 scale
Method in brief: as §1

large crabgrass = experiment: Test D large crabgrass; format: in vivo, Digitaria sanguinalis; conditions: Preemergence, 0 to 100 scale
Method in brief: as §1

pitted morningglory = experiment: Test D pitted morningglory; format: in vivo, Ipomoea lacunosa; conditions: Preemergence, 0 to 100 scale
Method in brief: as §1

purple nutsedge = experiment: Test D purple nutsedge; format: in vivo, Cyperus rotundus; conditions: Preemergence, 0 to 100 scale
Method in brief: as §1

sandbur = experiment: Test D sandbur; format: in vivo, Cenchrus echinatus; conditions: Preemergence, 0 to 100 scale
Method in brief: as §1

Spanishneedles = experiment: Test D Spanishneedles; format: in vivo, Bidens bipinnata; conditions: Preemergence, 0 to 100 scale
Method in brief: as §1

surinam grass = experiment: Test D surinam grass; format: in vivo, Brachiaria decumbens; conditions: Preemergence, 0 to 100 scale
Method in brief: as §1

Green foxtail [1] = experiment: Test D green foxtail; format: in vivo; conditions: Preemergence, 0 to 100 scale
Method in brief: as §1

Green foxtail [2] = experiment: Test D green foxtail; format: in vivo
Method in brief: as §1

[3] = Rate 16 g/ha, 0 no injury, 100 complete control
[4] = Rate 32 g/ha, 0 no injury, 100 complete control
[5] = Rate 64 g/ha, 0 no injury, 100 complete control
[6] = Rate 64 g/ha, Preemergence; 0 to 100 scale, 0 no injury, 100 complete control

`CC(C)N(C(=O)n1oc(=O)n(C2CCCCC2)c1=O)c1ccccc1` [Compound 112] was tested. Which “Plant response rating, Alexandergrass” value (Alexandergrass; [3]) did it give?
Its value is 0.

And the “Plant response rating, Alexandergrass” value (Alexandergrass; [4])?
The value was 0.

What about the “Plant response rating, Alexandergrass” value (Alexandergrass; [5]) of the same molecule?
Its value is 0.

What about the “Plant response rating, Alexandergrass” value (Alexandergrass; Rate 250 g/ha) of the same molecule?
Its value is 80.

And the “Plant response rating, Alexandergrass” value (Alexandergrass; Rate 500 g/ha)?
The value was 100.

What about the “Plant response rating, Bermudagrass” value (bermuda-grass; [3]) of the same molecule?
Its value is 60.

What about the “Plant response rating, Bermudagrass” value (bermuda-grass; [4]) of the same molecule?
Its value is 75.

And the “Plant response rating, Bermudagrass” value (bermuda-grass; [5])?
Its value is 85.

What about the “Plant response rating, Bermudagrass” value (bermuda-grass; Rate 250 g/ha) of the same molecule?
The value was 98.

What about the “Plant response rating, Bermudagrass” value (bermuda-grass; Rate 500 g/ha) of the same molecule?
The value was 100.

What about the “Plant response rating, C. purslane” value (common pursiane; [3]) of the same molecule?
Its value is 0.

And the “Plant response rating, C. purslane” value (common pursiane; [4])?
The value was 0.

What about the “Plant response rating, C. purslane” value (common pursiane; [5]) of the same molecule?
The value was 0.

What about the “Plant response rating, C. purslane” value (common pursiane; Rate 250 g/ha) of the same molecule?
The value was 0.

What about the “Plant response rating, C. purslane” value (common pursiane; Rate 500 g/ha) of the same molecule?
Its value is 0.

What about the “Plant response rating, C. ragweed” value (common ragweed; [3]) of the same molecule?
The value was 0.

What about the “Plant response rating, C. ragweed” value (common ragweed; [4]) of the same molecule?
The value was 0.

What about the “Plant response rating, C. ragweed” value (common ragweed; [5]) of the same molecule?
Its value is 0.

And the “Plant response rating, C. ragweed” value (common ragweed; Rate 250 g/ha)?
Its value is 0.

And the “Plant response rating, C. ragweed” value (common ragweed; Rate 500 g/ha)?
The value was 0.

And the “Plant response rating, Com. groundsel” value (common groundsel; [3])?
Its value is 0.

And the “Plant response rating, Com. groundsel” value (common groundsel; [4])?
The value was 0.

And the “Plant response rating, Com. groundsel” value (common groundsel; [5])?
The value was 0.

And the “Plant response rating, Com. groundsel” value (common groundsel; Rate 250 g/ha)?
Its value is 0.

And the “Plant response rating, Com. groundsel” value (common groundsel; Rate 500 g/ha)?
Its value is 10.

And the “Plant response rating, Dallisgrass” value (dallisgrass; [3])?
The value was 30.

What about the “Plant response rating, Dallisgrass” value (dallisgrass; [4]) of the same molecule?
Its value is 65.

What about the “Plant response rating, Dallisgrass” value (dallisgrass; [5]) of the same molecule?
Its value is 70.

And the “Plant response rating, Dallisgrass” value (dallisgrass; Rate 250 g/ha)?
Its value is 100.

What about the “Plant response rating, Dallisgrass” value (dallisgrass; Rate 500 g/ha) of the same molecule?
The value was 100.

And the “Plant response rating, Goosegrass” value (goosegrass; [3])?
Its value is 40.

What about the “Plant response rating, Goosegrass” value (goosegrass; [4]) of the same molecule?
The value was 40.

And the “Plant response rating, Goosegrass” value (goosegrass; [5])?
Its value is 85.

What about the “Plant response rating, Goosegrass” value (goosegrass; Rate 250 g/ha) of the same molecule?
The value was 100.

And the “Plant response rating, Goosegrass” value (goosegrass; Rate 500 g/ha)?
The value was 100.

And the “Plant response rating, Itchgrass” value (itchgrass; [3])?
Its value is 0.

What about the “Plant response rating, Itchgrass” value (itchgrass; [4]) of the same molecule?
The value was 0.

And the “Plant response rating, Itchgrass” value (itchgrass; [5])?
The value was 0.

And the “Plant response rating, Itchgrass” value (itchgrass; Rate 250 g/ha)?
Its value is 0.

What about the “Plant response rating, Itchgrass” value (itchgrass; Rate 500 g/ha) of the same molecule?
The value was 80.

And the “Plant response rating, Johnsongrass” value (Johnson grass; [3])?
Its value is 0.

What about the “Plant response rating, Johnsongrass” value (Johnson grass; [4]) of the same molecule?
The value was 0.

What about the “Plant response rating, Johnsongrass” value (Johnson grass; [5]) of the same molecule?
The value was 0.

What about the “Plant response rating, Johnsongrass” value (Johnson grass; Rate 250 g/ha) of the same molecule?
Its value is 0.

What about the “Plant response rating, Johnsongrass” value (Johnson grass; Rate 500 g/ha) of the same molecule?
The value was 50.

And the “Plant response rating, Large crabgrass” value (large crabgrass; [3])?
The value was 10.

What about the “Plant response rating, Large crabgrass” value (large crabgrass; [4]) of the same molecule?
Its value is 10.

What about the “Plant response rating, Large crabgrass” value (large crabgrass; [5]) of the same molecule?
Its value is 10.

And the “Plant response rating, Large crabgrass” value (large crabgrass; Rate 250 g/ha)?
The value was 100.

What about the “Plant response rating, Large crabgrass” value (large crabgrass; Rate 500 g/ha) of the same molecule?
Its value is 100.

What about the “Plant response rating, P. morninglory” value (pitted morningglory; [3]) of the same molecule?
The value was 0.

What about the “Plant response rating, P. morninglory” value (pitted morningglory; [4]) of the same molecule?
Its value is 0.

And the “Plant response rating, P. morninglory” value (pitted morningglory; [5])?
Its value is 0.

What about the “Plant response rating, P. morninglory” value (pitted morningglory; Rate 250 g/ha) of the same molecule?
Its value is 0.

And the “Plant response rating, P. morninglory” value (pitted morningglory; Rate 500 g/ha)?
Its value is 10.

And the “Plant response rating, Purple nutsedge” value (purple nutsedge; [3])?
The value was 0.

And the “Plant response rating, Purple nutsedge” value (purple nutsedge; [4])?
The value was 0.

What about the “Purple nutsedge plant response rating” value (purple nutsedge; [5]) of the same molecule?
Its value is 0.

What about the “Plant response rating, Purple nutsedge” value (purple nutsedge; Rate 250 g/ha) of the same molecule?
Its value is 0.

And the “Plant response rating, Purple nutsedge” value (purple nutsedge; Rate 500 g/ha)?
The value was 40.

And the “Plant response rating, Sandbur” value (sandbur; [3])?
Its value is 0.

And the “Plant response rating, Sandbur” value (sandbur; [4])?
Its value is 0.

What about the “Sandbur plant response rating” value (sandbur; [5]) of the same molecule?
The value was 0.

And the “Plant response rating, Sandbur” value (sandbur; Rate 250 g/ha)?
The value was 0.

And the “Plant response rating, Sandbur” value (sandbur; Rate 500 g/ha)?
Its value is 100.

And the “Plant response rating, Spanishneedles” value (Spanishneedles; [3])?
The value was 0.

What about the “Plant response rating, Spanishneedles” value (Spanishneedles; [4]) of the same molecule?
Its value is 0.

And the “Spanishneedles plant response rating” value (Spanishneedles; [5])?
The value was 0.

What about the “Plant response rating, Spanishneedles” value (Spanishneedles; Rate 500 g/ha) of the same molecule?
The value was 10.

What about the “Plant response rating, Surinam grass” value (surinam grass; [3]) of the same molecule?
The value was 0.

And the “Plant response rating, Surinam grass” value (surinam grass; [4])?
Its value is 0.

And the “Surinam grass plant response rating” value (surinam grass; [5])?
The value was 0.

And the “Plant response rating, Surinam grass” value (surinam grass; Rate 250 g/ha)?
Its value is 0.

And the “Plant response rating, Surinam grass” value (surinam grass; Rate 500 g/ha)?
Its value is 98.

What about the “Plant response rating, Green foxtail” value (Green foxtail [1]; Rate 250 g/ha) of the same molecule?
The value was 98.

And the “Plant response rating, Green foxtail” value (Green foxtail [1]; Rate 500 g/ha)?
The value was 0.

And the “Plant response rating, Green foxtail” value (Green foxtail [2]; Preemergence; Rate 16 g/ha; 0 to 100 scale, 0 no injury, 100 complete control)?
Its value is 0.

What about the “Plant response rating, Green foxtail” value (Green foxtail [2]; Preemergence; Rate 32 g/ha; 0 to 100 scale, 0 no injury, 100 complete control) of the same molecule?
The value was 0.

And the “Plant response rating, Green foxtail” value (Green foxtail [2]; Rate 16 g/ha; Preemergence; 0 to 100 scale, 0 no injury, 100 complete control)?
The value was 0.

And the “Plant response rating, Green foxtail” value (Green foxtail [2]; Rate 32 g/ha; Preemergence; 0 to 100 scale, 0 no injury, 100 complete control)?
Its value is 98.

And the “Green foxtail plant response rating” value (Green foxtail [2]; [6])?
Its value is 85.

What about the “Plant response rating, Green foxtail” value (Green foxtail [2]; [6]) of the same molecule?
Its value is 85.

What about the “Plant response rating, Green foxtail” value (Green foxtail [2]; Rate 250 g/ha; Preemergence; 0 to 100 scale) of the same molecule?
Its value is 98.

And the “Plant response rating, Green foxtail” value (Green foxtail [2]; Rate 500 g/ha, Preemergence; 0 to 100 scale)?
Its value is 0.
